In patent publication US20230125429A1 (priority 2017, published 2023):
pIC50: −log10 of the molar value. Values joined by “and” are separate entries in the source; they are usually repeats but may differ in a detail not shown here. Equal values may be shown once. “Also recorded” adds a separate entry of the source.

Experiments:
AGS = experiment: Growth inhibitory effect, one hour exposure (IncuCyte Zoom); format: cell-based, human; conditions: Gastric cancer
Experimental: (§1) Cancer cell lines and immortalized human cell lines were cultured in 1640 tissue culture medium (Corning, USA) with 10% fetal bovine serum in a standard tissue culture condition of 37° C. and 5% CO2.
(§2) For primary hepatocytes, the seeded cells were monitored for up to 48 hours either without any treatment (as a control) or with various types of treatments. For primary keratinocytes, cells in 48-well plates were monitored either without any treatment or with various types of treatment for up to 96 hours. For HepG2, cells 96-well plates were monitored either without any treatment or with various types of treatments for up to 48 hours. The IncuCyte Zoom was set to take a set of images at fixed locations (4 per well for 96-well plates and 16 per well for 48-well plates and 12-well plates) every three hours.
(§3) The one-hour exposure is intended to simulate the transient high concentrations within the liver as the results of either the first pass effects of some orally administered drugs, or of locally delivered drugs, anticipating that such a short term exposure is nevertheless sufficient to affect certain cell surface receptors without causing any significant off-target effects due to intracellular absorption. Such a strategy would also reduce false hits due to reversible cell cycle arrests.
(§4) To address this possibility, we investigated whether other cell lines, including other HCC cell lines, cell lines from other type of cancers, as well as non-cancer immortalized/transformed cell lines, were also sensitive to Triptonide. Specifically, a total of 51 human cancer cell lines, representing 10 types of human cancers (6 non-small cell lung cancer cell lines, 5 colon cancer cell lines, 5 central nerve system cancer cell lines, 8 Melanomas cell lines, 4 ovarian cancer cell lines, 4 renal cancer cell lines, 2 prostate cancer cell lines, 3 breast cancer cell lines, 7 hepatocellular carcinoma cell lines, and 4 gastric cancer cell lines) were analyzed.

BGC823 = experiment: as above; format: cell-based, human; conditions: BGC823, Gastric cancer
Experimental: as §1, §2, §3, §4

HCC-2998 = experiment: as above; format: cell-based, human; conditions: HCC-2998, Colon
Experimental: as §1, §2, §3, §4

HS 578T = experiment: as above; format: cell-based, human; conditions: Breast
Experimental: as §1, §2, §3, §4

HT29 = experiment: as above; format: cell-based, human; conditions: HT29, Colon
Experimental: as §1, §2, §3, §4

Hep3B = experiment: as above; format: cell-based, human; conditions: Hepatocellular carcinoma
Experimental: as §1, §2, §3, §4

Huh7 = experiment: as above; format: cell-based, human; conditions: Huh7, Hepatocelular carcinoma
Experimental: as §1, §2, §3, §4

LM9 = experiment: as above; format: cell-based, human; conditions: LM9, Hepatocellular carcinoma
Experimental: as §1, §2, §3, §4

MCP7 = experiment: as above; format: cell-based, human; conditions: MCP7, Breast
Experimental: as §1, §2, §3, §4

NCI-H460 = experiment: as above; format: cell-based, human; conditions: NCI-H460, Non-Small Cell Lung
Experimental: as §1, §2, §3, §4

OVCAR-4 = experiment: as above; format: cell-based, human; conditions: OVCAR-4, Ovarian
Experimental: as §1, §2, §3, §4

PC-3 = experiment: as above; format: cell-based, human; conditions: PC-3, Prostate
Experimental: as §1, §2, §3, §4

SF-295 = experiment: as above; format: cell-based, human; conditions: SF-295, CNS
Experimental: as §1, §2, §3, §4

SF-539 = experiment: as above; format: cell-based, human; conditions: SF-539, CNS
Experimental: as §1, §2, §3, §4

SNU-387 = experiment: as above; format: cell-based, human; conditions: SNU-387, Hepatocellular carcinoma
Experimental: as §1, §2, §3, §4

T-47D = experiment: as above; format: cell-based, human; conditions: Breast
Experimental: as §1, §2, §3, §4

U251 = experiment: as above; format: cell-based, human; conditions: U251, CNS
Experimental: as §1, §2, §3, §4

[1] = tested on: 51 human cancer cell lines; experiment: Growth inhibitory effect, one hour exposure, whole panel; format: cell-based; conditions: mean over the 51 cancer cell lines
Experimental: as §1
as §2, with “The IncuCyte Zoom was set to take a set of images at fixed locations (4 per well for 96-well plates and 16 per well for 48-well plates and 12-well plates) every three hours.” left out
as §4

GES-1 = experiment: Growth inhibitory effect, one hour exposure (IncuCyte Zoom); format: cell-based, human; conditions: GES-1, immortalized gastric epithelium
LO2 = experiment: as above; format: cell-based, human; conditions: LO2, immortalized hepatocytes
HepG2 = format: cell-based, human
wild-type keratinocytes = experiment: Growth of wild-type primary keratinocytes, short-term treatment; format: cell-based, mouse
[2] = tested on: Par2 knockout keratinocytes; experiment: Growth of Par2 knockout primary keratinocytes, one hour treatment; format: cell-based, mouse; conditions: one hour treatment
[3] = Lethal dose and maximum tolerable dose in mice; format: in vivo
Experimental: Thus, a second preliminary experiment was carried out in tumor-bearing nude mice to determine whether an antitumor effect could be achieved within the non-toxic range. […] Thus, the 25 mg/kg once every other day regimen was selected for the preclinical experiment. The volumes of individual tumors were assessed by bioluminescent imaging.
Thus, we first determined the lethal dose and the maximum tolerable dose (MTD) of Triptonide for mice based on a once every other day regimen. […] It is noted that once every other day might not be the optimal scheme. Nonetheless, we decided to begin with this scheme and the 25% value of the MTD, i.e. 25 mg/kg.

[4] = cited from earlier work
[5] = rodents, intraperitoneal injection

Compound: CC(C)[C@]12O[C@H]1[C@@H]1O[C@@]13[C@@]1(C)CCC4=C(COC4=O)[C@@H]1C[C@@H]1O[C@@]13C2=O [Triptonide]
- pIC50 (AGS): 5.39
- pIC50 (BGC823): 4.98
- pIC50 (HCC-2998): 5.56
- pIC50 (HS 578T): 5.73
- pIC50 (HT29): 5.77
- pIC50 (Hep3B): 5.89
- pIC50 (Huh7): 5.76
- pIC50 (LM9): 5.37
- pIC50 (MCP7): 6.23
- pIC50 (NCI-H460): 5.07
- pIC50 (OVCAR-4): 5.81
- pIC50 (PC-3): 5.17
- pIC50 (SF-295): 4.84
- pIC50 (SF-539): 5.94
- pIC50 (SNU-387): 5.17
- pIC50 (T-47D): 5.74
- pIC50 (U251): 4.36
- pIC50 [1]: 5.14 and 5.12
- pIC50 (GES-1): 4.78
- pIC50 (LO2): 6.19
- effect of continuous exposure on HepG2 (HepG2): complete death
- pIC50 (wild-type keratinocytes): 5.89
- effect on growth of wild-type keratinocytes (wild-type keratinocytes): effective in inhibiting the growth; also recorded: complete growth inhibition; also recorded: significant growth suppressive effect
- effect on growth of Par2 knockout keratinocytes ([2]; 100 and 200 µM): growth inhibitory effects
- pIC50 ([2]; Par2 knockout keratinocytes): 4.59
- effect on growth of Par2 knockout keratinocytes ([2]; concentrations up to 26 µM): did not cause significant growth inhibition
- mortality ([3]; 100 mg/kg three times a day, four-hour interval, within four days): all animals were dead
- death ([3]; 200 mg/kg oral, once every other day, within four days): 100%
- adverse effects ([3]; up to 100 mg/kg oral, once every other day): did not cause any significant adverse effects; also recorded: did not result in any significant adverse effects
- effect of continuous exposure on PMHs (PMHs): complete death
- toxic effect on PMHs (PMHs): no significant toxic effect
- change of plasma concentration on redistribution ([4]; rodent, following an oral dosing): several dozen folds of decrease
- T1/2 alpha [4, 5]: 10.2 to 11.7 min
- T1/2 beta [4, 5]: 4.95 to 6.49 h
